One data set deals with CYP3A4 (Homo sapiens, UniProt P08684). The data set can be described thus: Cytochrome P450 (CYP450) Inhibition Assay, CYP3A4 (Vivid fluorescence, BOMCC substrate). As to conditions: human, P450 Baculosomes (recombinant CYP3A4), probe BOMCC (Vivid substrate).

Bounds are passed on as bounds.

CYP3A4, sequence (P08684 whole entry): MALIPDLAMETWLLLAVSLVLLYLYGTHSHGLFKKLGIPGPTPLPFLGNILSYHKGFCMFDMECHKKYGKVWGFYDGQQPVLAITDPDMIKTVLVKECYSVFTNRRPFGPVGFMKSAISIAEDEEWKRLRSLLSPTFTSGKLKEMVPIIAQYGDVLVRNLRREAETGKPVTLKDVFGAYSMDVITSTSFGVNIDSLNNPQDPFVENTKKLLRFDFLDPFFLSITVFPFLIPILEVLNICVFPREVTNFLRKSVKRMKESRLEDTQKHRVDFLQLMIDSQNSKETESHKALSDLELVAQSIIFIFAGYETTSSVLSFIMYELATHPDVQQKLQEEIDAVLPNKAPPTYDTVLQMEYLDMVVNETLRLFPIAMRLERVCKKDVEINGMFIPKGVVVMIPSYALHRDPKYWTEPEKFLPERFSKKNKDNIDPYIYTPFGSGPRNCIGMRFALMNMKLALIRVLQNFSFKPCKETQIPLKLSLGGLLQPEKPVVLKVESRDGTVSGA

`COc1ncc(CN2C(=O)C3(COc4cc5c(cc43)OCCO5)c3ccccc32)cn1` (stereo not drawn) [Example 5.14, 1′-[(2-methoxypyrimidin-5-yl)methyl]-2,3-dihydrospiro[furo[2,3-g][1,4]benzodioxine-8,3′-indol]-2′(1′H)-one] registered a melting point of 248 to 249 °C. Besides, the inhibition at 10 µM on CYP3A4 was less than 50%.
The corresponding values for `O=C1N(C[C@H]2COCCO2)c2ccccc2C12COc1cc3c(cc12)OCCCO3` (stereo partly drawn) [Example 8.13, 1′-[(2S)-1,4-dioxan-2-ylmethyl]-3,4-dihydro-2H-spiro[furo[2,3-h][1,5]benzodioxepine-9,3′-indol]-2′(1′H)-one] are 137 to 139 °C and less than 50%.
The corresponding values for `CN1C(=O)C2(COc3cc4c(cc32)OCCO4)c2c(C(=O)O)cccc21` (stereo not drawn) [Example 11.77, 1′-methyl-2′-oxo-1′,2,2′,3-tetrahydrospiro[furo[2,3-g][1,4]benzodioxine-8,3′-indole]-4′-carboxylic acid] are 297 to 299 °C and less than 50%.
Molecule `CN1C(=O)C2(COc3cc4c(cc32)OCCO4)c2c(-c3ccc4ccc(=O)oc4c3)cccc21` (stereo not drawn) [Example 16.15, 1′-methyl-4′-(2-oxo-2H-chromen-7-yl)-2,3-dihydrospiro[furo[2,3-g][1,4]benzodioxine-8,3′-indol]-2′(1′H)-one] gave a melting point of 228 to 229 °C. In addition, the inhibition at 10 µM on CYP3A4 is greater than 50%.
The corresponding values for `CN1C(=O)C2(COc3cc4c(cc32)OCCO4)c2c1cccc2N1CCCC1=O` (stereo not drawn) [Example 16.16, 1′-methyl-4′-(2-oxopyrrolidin-1-yl)-2,3-dihydrospiro[furo[2,3-g][1,4]benzodioxine-8,3′-indol]-2′(1′H)-one] are 256 to 258 °C and less than 50%.
Taken in the same sequence, the figures for `CN1C(=O)C2(COc3cc4c(cc32)OCCO4)c2c(N3CCOCC3)cccc21` (stereo not drawn) [Example 16.17, 1′-methyl-4′-morpholin-4-yl-2,3-dihydrospiro[furo[2,3-g][1,4]benzodioxine-8,3′-indol]-2′(1′H)-one] were 246 to 249 °C and less than 50%.
The corresponding values for `CN1C(=O)C2(COc3cc4c(cc32)OCCO4)c2c1cccc2-n1ccccc1=O` (stereo not drawn) [Example 16.18, 1′-methyl-4′-(2-oxopyridin-1(2H)-yl)-2,3-dihydrospiro[furo[2,3-g][1,4]benzodioxine-8,3′-indol]-2′(1′H)-one] are 212 to 214 °C and less than 50%.
In the case of `CN1C(=O)C2(COc3cc4c(cc32)OCCO4)c2c(N)cccc21` (stereo not drawn) [Example 16.19, 4′-amino-1′-methyl-2,3-dihydrospiro[furo[2,3-g][1,4]benzodioxine-8,3′-indol]-2′(1′H)-one], the melting point lay within 252 to 254 °C. Further, the inhibition at 10 µM at CYP3A4 is less than 50%.
Consider `CN1C(=O)C2(COc3cc4c(cc32)OCCO4)c2c(NC(=O)C3CCC3)cccc21` (stereo not drawn) [Example 16.20, N-(1′-methyl-2′-oxo-1′,2,2′,3-tetrahydrospiro[furo[2,3-g][1,4]benzodioxine-8,3′-indol]-4′-yl)cyclobutanecarboxamide], for which the melting point is 234 to 236 °C. For the same molecule, the inhibition at 10 µM on CYP3A4 is less than 50%.
The corresponding values for `CN1C(=O)C2(COc3cc4c(cc32)OCCO4)c2c(NS(C)(=O)=O)cccc21` (stereo not drawn) [Example 16.22, N-(1′-methyl-2′-oxo-1′,2,2′,3-tetrahydrospiro[furo[2,3-g][1,4]benzodioxine-8,3′-indol]-4′-yl)methanesulfonamide] are 184 to 186 °C and less than 50%.
Taken in the same sequence, the figures for `CN1C(=O)C2(COc3cc4c(cc32)OCCO4)c2c(NC(=O)C3CCCCC3)cccc21` (stereo not drawn) [Example 16.23, N-(1′-methyl-2′-oxo-1′,2,2′,3-tetrahydrospiro[furo[2,3-g][1,4]benzodioxine-8,3′-indol]-4′-yl)cyclohexanecarboxamide] were 96 to 98 °C and less than 50%.
Consider `CN1C(=O)C2(COc3cc4c(cc32)OCCO4)c2c(NC(=O)C3CCCC3)cccc21` (stereo not drawn) [Example 16.24, N-(1′-methyl-2′-oxo-1′,2,2′,3-tetrahydrospiro[furo[2,3-g][1,4]benzodioxine-8,3′-indol]-4′-yl)cyclopentanecarboxamide], for which the melting point lay within 196 to 198 °C. For the same molecule, the inhibition at 10 µM at CYP3A4 was less than 50%.
Molecule `CC(=O)Nc1cccc2c1C1(COc3cc4c(cc31)OCCO4)C(=O)N2C` (stereo not drawn) [Example 16.25, N-(1′-methyl-2′-oxo-1′,2,2′,3-tetrahydrospiro[furo[2,3-g][1,4]benzodioxine-8,3′-indol]-4′-yl)acetamide] yielded a melting point of 182 to 184 °C. On CYP3A4, the inhibition at 10 µM was less than 50%.
The corresponding values for `CN1C(=O)C2(COc3cc4c(cc32)OCCO4)c2c(NC(=O)C3CC3)cccc21` (stereo not drawn) [Example 16.26, N-(1′-methyl-2′-oxo-1′,2,2′,3-tetrahydrospiro[furo[2,3-g][1,4]benzodioxine-8,3′-indol]-4′-yl)cyclopropanecarboxamide] are 266 to 268 °C and less than 50%.
On to `CN1C(=O)C2(COc3cc4c(cc32)OCCO4)c2c(NC(=O)c3ccccc3)cccc21` (stereo not drawn) [Example 16.27, N-(1′-methyl-2′-oxo-1′,2,2′,3-tetrahydrospiro[furo[2,3-g][1,4]benzodioxine-8,3′-indol]-4′-yl)benzamide], for which the melting point is 192 to 194 °C. The inhibition at 10 µM at CYP3A4 is greater than 50%.
Taken in the same sequence, the figures for `COCC(=O)Nc1cccc2c1C1(COc3cc4c(cc31)OCCO4)C(=O)N2C` (stereo not drawn) [Example 16.28, 2-methoxy-N-(1′-methyl-2′-oxo-1′,2,2′,3-tetrahydrospiro[furo[2,3-g][1,4]benzodioxine-8,3′-indol]-4′-yl)acetamide] were 237 to 239 °C and less than 50%.
On to `CCC(=O)Nc1cccc2c1C1(COc3cc4c(cc31)OCCO4)C(=O)N2C` (stereo not drawn) [Example 16.29, N-(1′-methyl-2′-oxo-1′,2,2′,3-tetrahydrospiro[furo[2,3-g][1,4]benzodioxine-8,3′-indol]-4′-yl)propanamide], for which the melting point fell in the range of 224 to 226 °C. The inhibition at 10 µM at CYP3A4 was less than 50%.
Taken in the same sequence, the figures for `CCCCC(=O)Nc1cccc2c1C1(COc3cc4c(cc31)OCCO4)C(=O)N2C` (stereo not drawn) [Example 16.30, N-(1′-methyl-2′-oxo-1′,2,2′,3-tetrahydrospiro[furo[2,3-g][1,4]benzodioxine-8,3′-indol]-4′-yl)pentanamide] were 182 to 183 °C and less than 50%.
Taken in the same sequence, the figures for `CN1C(=O)C2(COc3cc4c(cc32)OCCO4)c2c(NC(=O)C(C)(C)C)cccc21` (stereo not drawn) [Example 16.31, 2,2-dimethyl-N-(1′-methyl-2′-oxo-1′,2,2′,3-tetrahydrospiro[furo[2,3-g][1,4]benzodioxine-8,3′-indol]-4′-yl)propanamide] were 182 to 184 °C and less than 50%.
Molecule `CCCCCC(=O)Nc1cccc2c1C1(COc3cc4c(cc31)OCCO4)C(=O)N2C` (stereo not drawn) [Example 16.32, N-(1′-methyl-2′-oxo-1′,2,2′,3-tetrahydrospiro[furo[2,3-g][1,4]benzodioxine-8,3′-indol]-4′-yl)hexanamide] had a melting point of 151 to 153 °C. In addition, the inhibition at 10 µM at CYP3A4 was less than 50%.
The corresponding values for `CCCCCCC(=O)Nc1cccc2c1C1(COc3cc4c(cc31)OCCO4)C(=O)N2C` (stereo not drawn) [Example 16.33, N-(1′-methyl-2′-oxo-1′,2,2′,3-tetrahydrospiro[furo[2,3-g][1,4]benzodioxine-8,3′-indol]-4′-yl)heptanamide] are 123 to 124 °C and greater than 50%.
Taken in the same sequence, the figures for `COCCOCC(=O)Nc1cccc2c1C1(COc3cc4c(cc31)OCCO4)C(=O)N2C` (stereo not drawn) [Example 16.34, 2-(2-methoxyethoxy)-N-(1′-methyl-2′-oxo-1′,2,2′,3-tetrahydrospiro[furo[2,3-g][1,4]benzodioxine-8,3′-indol]-4′-yl)acetamide] were 122 to 123 °C and less than 50%.
The corresponding values for `CCCCCCNC(=O)Nc1cccc2c1C1(COc3cc4c(cc31)OCCO4)C(=O)N2C` (stereo not drawn) [Example 16.35, 1-hexyl-3-(1′-methyl-2′-oxo-1′,2,2′,3-tetrahydrospiro[furo[2,3-g][1,4]benzodioxine-8,3′-indol]-4′-yl)urea] are 154 to 155 °C and greater than 50%.
The molecule `CN1C(=O)C2(COc3cc4c(cc32)OCCO4)c2c(NC(=O)NC3CCCC3)cccc21` (stereo not drawn) [Example 16.36, 1-cyclopentyl-3-(1′-methyl-2′-oxo-1′,2,2′,3-tetrahydrospiro[furo[2,3-g][1,4]benzodioxine-8,3′-indol]-4′-yl)urea] had a melting point of 133 to 135 °C. Further, on CYP3A4, the inhibition at 10 µM was less than 50%.
Taken in the same sequence, the figures for `CN1C(=O)C2(COc3cc4c(cc32)OCCO4)c2c(NC(=O)NC3CCCCC3)cccc21` (stereo not drawn) [Example 16.37, 1-cyclohexyl-3-(1′-methyl-2′-oxo-1′,2,2′,3-tetrahydrospiro[furo[2,3-g][1,4]benzodioxine-8,3′-indol]-4′-yl)urea] were 175 to 177 °C and less than 50%.
In turn, `CN1C(=O)C2(COc3cc4c(cc32)OCCO4)c2c(C(=O)NC3CCCCC3)cccc21` (stereo not drawn) [Example 16.38, N-cyclohexyl-1′-methyl-2′-oxo-1′,2,2′,3-tetrahydrospiro[furo[2,3-g][1,4]benzodioxine-8,3′-indole]-4′-carboxamide] came in with a melting point of 139 to 140 °C. Also, the inhibition at 10 µM on CYP3A4 was less than 50%.
As to `CN1C(=O)C2(COc3cc4c(cc32)OCCO4)c2c(C(=O)NC3CCCC3)cccc21` (stereo not drawn) [Example 16.39, N-cyclopentyl-1′-methyl-2′-oxo-1′,2,2′,3-tetrahydrospiro[furo[2,3-g][1,4]benzodioxine-8,3′-indole]-4′-carboxamide], the melting point was 135 to 136 °C. Further, the inhibition at 10 µM at CYP3A4 was less than 50%.
